# Structures can show the parent of a compound that is named as a salt.
# Experiment: RP, Waters ACQUITY UPLC BEH C18, 100 × 2.1 mm, 1.7 µm, 65 °C, 0.4 mL/min, estimated dead time 0.55 min; A: water + 0.1% formic acid, pH 3; B: 80% acetonitrile + 20% acetone + 0.1% formic acid, pH 3; gradient (min/%B) 0/0 5/100 5.5/0 6/0
# Conditions: stereoisomer not certain
row,LC retention time,SMILES
1,2.86 min,"COc1cc(CC2COC(=O)C2Cc2ccc(O)c(OC)c2)ccc1O (single isomer, unassigned; (-)) [(-)-Matairesinol]"
2,2.4 min,"COc1cc(CC(CO)C(CO)Cc2ccc(O)c(OC)c2)ccc1O (single isomer, unassigned; (-)) [(-)-Secoisolariciresinol]"
3,2.36 min,"COc1cccc(OC)c1O [2,6-Dimethoxyphenol]"
4,1.72 min,CC(C)C(O)(CC(=O)O)C(=O)O (stereo not drawn) [2-Isopropylmalic acid]
5,1.37 min,O=C1CCCCN1 [2-Piperidinone]
6,1.99 min,CC1(O)Cc2c(O)cc(O)cc2OC1c1ccc(O)c(O)c1 (stereo not drawn) [3-Methylepicatechin]
7,2.06 min,O=C(O)CC(O)c1ccccc1 (stereo not drawn) [3-hydroxy-3-phenylpropionic acid]
8,2.18 min,COc1cc(C(C)=O)ccc1O [4'-Hydroxy-3'methoxyacetophenone]
9,1.53 min,Nc1ccc(C(=O)O)cc1 [4-Aminobenzoic acid]
10,2.03 min,Cc1cc(C(=O)O)ccc1O [4-Hydroxy-3-methylbenzoic acid]
11,2.32 min,O=Cc1c[nH]c2ccccc12 [Indole-3-carbaldehyde]
12,3.73 min,CC12C=Cc3occc3C1CCC13CC(CCC12)C(O)(CO)C3 (stereo not drawn) [Kahweol]
13,1.35 min,CC(O)(CCO)CC(=O)[O-] (stereo not drawn) [Mevalonic acid]
14,1.68 min,O=C(O)c1ccc2ccccc2n1 [Quinaldic acid]
15,1.73 min,Cc1cc2nc3c(=O)[nH]c(=O)nc-3n(CC(O)C(O)C(O)CO)c2cc1C (stereo not drawn) [Riboflavin]
16,2.96 min,COc1ccc(-c2oc3cc(O)cc(O)c3c(=O)c2O)cc1O [Tamarixetin]
17,1.5 min,Cn1c(=O)c2[nH]cnc2n(C)c1=O [Theophylline]
18,1.42 min,COc1cc(C(O)C(=O)O)ccc1O (stereo not drawn) [Vanillylmandelic acid]

row,SMILES,LC retention time
1,C=C1CCC(O)CC1=CC=C1CCCC2(C)C1CCC2C(C)C=CC(C)C(C)(C)O (stereo not drawn) [25-Hydroxyvitamin-D2],5.07 min
2,NCCc1c[nH]c2ccccc12 [Tryptamine],1.51 min

# Experiment: RP, Agilent ZORBAX Eclipse XDB-C18, 100 × 2.1 mm, 1.8 µm, 50 °C, 0.4 mL/min, estimated dead time 0.55 min; A: water + 0.1% formic acid, pH 3; B: methanol + 0.1% formic acid, pH 3; gradient (min/%B) 0/2 10/100 14.5/100 14.51/2 16.5/2
# Conditions: stereoisomer not certain
row,LC retention time,SMILES
1,2.68 min,COc1c(O)cccc1O [2-Methoxyresorcinol]
2,2.21 min,"O=C(O)Cc1cc(O)cc(O)c1 [3,5-Dihydroxyphenylacetic acid]"
3,4.8 min,O=C([O-])CCc1ccccc1O [3-(2-Hydroxyphenyl)propionic acid]
4,2.08 min,Nc1ccc(C(=O)O)cc1 [4-Aminobenzoic acid]
5,2.63 min,O=C(O)CCCCC(=O)O [Adipic acid]
6,4.75 min,O=C(O)CNC(=O)C=Cc1ccccc1 [Cinnamoylglycine]
7,11.8 min,C=C1CCC(O)CC1=CC=C1CCCC2(C)C1CCC2C(C)C=CC(C)C(C)C (stereo not drawn) [Ergocalciferol]
8,1.82 min,O=C(O)Cc1cc(O)ccc1O [Homogentisic acid]
9,3.01 min,O=C([O-])C(O)c1ccccc1 (stereo not drawn) [Mandelic acid]
10,4.17 min,Cc1cc2nc3c(=O)[nH]c(=O)nc-3n(CC(O)C(O)C(O)CO)c2cc1C (stereo not drawn) [Riboflavin]
11,3.05 min,Cn1c(=O)c2[nH]cnc2n(C)c1=O [Theophylline]
12,1.65 min,COc1cc(C(O)C(=O)O)ccc1O (stereo not drawn) [Vanillylmandelic acid]
13,13.8 min,CC1=C(/C=C/C(C)=C/C=C/C(C)=C/C=C/C=C(C)/C=C/C=C(C)/C=C/C2=C(C)CCCC2(C)C)C(C)(C)CCC1 [beta-carotene]

row,SMILES,LC retention time
1,NCC(O)c1ccccc1 (stereo not drawn) [2-Amino-1-phenylethanol],1.42 min
2,CC1NCCc2cc(O)c(O)cc21 (stereo not drawn) [Salsolinol],1.57 min
3,NCCc1c[nH]c2ccccc12 [Tryptamine],2.51 min

# Experiment: RP, Waters ACQUITY UPLC HSS T3, 100 × 2.1 mm, 1.8 µm, 30 °C, 0.4 mL/min, estimated dead time 0.55 min; A: water + 0.1% formic acid, pH 3; B: acetonitrile + 0.1% formic acid, pH 3; gradient (min/%B) 0/0 2/0 15/100 22/100 22.1/0 26/0
# Conditions: stereoisomer not certain
row,LC retention time,SMILES
1,1.1 min,CN1CCCCC1C(=O)O (stereo not drawn) [1-Methylpiperidine-2-carboxylic acid]
2,6.63 min,Cn1c(=O)[nH]c2nc[nH]c2c1=O [1-Methylxanthine]
3,7.8 min,O=Cc1ccc[nH]1 [1H-pyrrole-2-carboaldehyde]
4,10.9 min,CCCC(C(=O)O)c1cccc(O)c1 (stereo not drawn) [3-Hydroxyphenylvaleric acid]
5,9.86 min,"O=C(O)CCCCc1ccc(O)c(O)c1 [5-(3,4 dihydroxyphenyl)valeric acid]"
6,1.34 min,OCC1OC(Oc2ccc(O)cc2)C(O)C(O)C1O (stereo not drawn) [Arbutin]
7,17.4 min,CC(C)=CCCC(C)=CCOc1c2ccoc2cc2oc(=O)ccc12 [Bergamottin]
8,12.6 min,COc1c2ccoc2cc2oc(=O)ccc12 [Bergapten]
9,13.5 min,COc1ccc(-c2coc3cc(O)cc(O)c3c2=O)cc1 [Biochanin A]
10,13.7 min,COc1cc(CNC(=O)CCCCC=CC(C)C)ccc1O [Capsaicin]
11,9.2 min,CC(C)CC1NC(=O)C2CCCN2C1=O (stereo not drawn) [Cyclo(leucyl-prolyl)]
12,11.8 min,COc1ccc(-c2cc(=O)c3c(O)cc(O)cc3o2)cc1O [Diosmetin]
13,10.6 min,OCC(Cc1cccc(O)c1)C(CO)Cc1cccc(O)c1 (stereo not drawn) [Enterodiol]
14,12.4 min,COc1ccc(-c2coc3cc(O)ccc3c2=O)cc1 [Formononetin]
15,11.7 min,COc1cc(C2CC(=O)c3c(O)cc(O)cc3O2)ccc1O (stereo not drawn) [Homoeriodictyol]
16,13.4 min,COc1ccc(-c2oc3cc(O)cc(O)c3c(=O)c2O)cc1 [Kaempferide]
17,13.2 min,COc1ccc(-c2cc(=O)c3c(OC)c(OC)c(OC)c(OC)c3o2)cc1OC [Nobiletin]
18,13.7 min,O=C(C=CC=Cc1ccc2c(c1)OCO2)N1CCCCC1 [Piperine]
19,8.35 min,Oc1cc(O)c2c(c1)OC(c1ccc(O)c(O)c1)C(O)C2c1c(O)cc(O)c2c1OC(c1ccc(O)c(O)c1)C(O)C2 (stereo not drawn) [Procyanidin B2]
20,12.5 min,COc1cc(O)c2c(=O)c(O)c(-c3ccc(O)c(O)c3)oc2c1 [Rhamnetin]
21,12.6 min,COc1ccc(-c2cc(=O)c3c(OC)c(OC)c(OC)cc3o2)cc1OC [Sinensetin]
22,11.9 min,COc1ccc(-c2oc3cc(O)cc(O)c3c(=O)c2O)cc1O [Tamarixetin]
23,9.12 min,O=c1cc(-c2ccc(O)cc2)oc2c(C3OC(CO)C(O)C(O)C3O)c(O)cc(O)c12 (stereo not drawn) [Vitexin]

row,SMILES,LC retention time
1,CC1CCC2(NC1)OC1CC3C4CCC5CC(O)CCC5(C)C4CCC3(C)C1C2C (stereo not drawn) [Tomatidine],11.8 min

# Experiment: RP, Agilent InfinityLab Poroshell 120 EC-C18, 100 × 3 mm, 2.7 µm, 25 °C, 0.4 mL/min, estimated dead time 1.1 min; A: water + 0.1% formic acid, pH 3; B: acetonitrile + 0.1% formic acid, pH 3; gradient (min/%B) 0/5 10/25 20/40 24/90 25/90 26/5 30/5
# Conditions: stereoisomer not certain
row,LC retention time,SMILES
1,6.5 min,O=C1CCC(Cc2ccc(O)c(OS(=O)(=O)O)c2)O1 (stereo not drawn)
2,10.6 min,O=C1CCC(Cc2cccc(O)c2)O1 (stereo not drawn)
3,11.5 min,"COc1cc(CC(CO)C(CO)Cc2ccc(O)c(OC)c2)ccc1O (single isomer, unassigned; (-)) [(-)-Secoisolariciresinol]"
4,6.49 min,"O=C(O)c1c(O)cccc1O [2,6-Dihydroxybenzoic acid]"
5,8.83 min,O=C(O)C1OC(Oc2ccc(-c3coc4cc(O)ccc4c3=O)cc2)C(O)C(O)C1O (stereo not drawn) [Daidzein 4'-O-glucuronide]
6,7.51 min,O=C(O)C1OC(Oc2ccc3c(=O)c(-c4ccc(O)cc4)coc3c2)C(O)C(O)C1O (stereo not drawn) [Daidzein 7-O-glucuronide]
7,9.85 min,O=c1c(-c2ccc(O)cc2)coc2cc(OS(=O)(=O)O)ccc12 [Daidzein sulfate]
8,13.5 min,OCC(Cc1cccc(O)c1)C(CO)Cc1cccc(O)c1 (stereo not drawn) [Enterodiol]
9,11.6 min,O=S(=O)([O-])Oc1ccc(C2COc3cc(O)ccc3C2)cc1 (stereo not drawn) [Equol sulfate]
10,10.7 min,O=C(O)C1OC(Oc2ccc(-c3coc4cc(O)cc(O)c4c3=O)cc2)C(O)C(O)C1O (stereo not drawn) [Genistein 4'-O-glucuronide]
11,13.3 min,COc1ccc(C2CC(=O)c3c(O)cc(O)cc3O2)cc1OS(=O)(=O)O (stereo not drawn) [Hesperetin 3'-O-sulfate]
12,12.6 min,COc1ccc(C2CC(=O)c3c(O)cc(OS(=O)(=O)O)cc3O2)cc1O (stereo not drawn) [Hesperetin 7-sulfate]
13,12.7 min,O=c1oc2cc(O)ccc2c2cc(O)ccc12 [Isourolithin  A]
14,8.44 min,O=C(O)C1OC(Oc2ccc3c(c2)oc(=O)c2ccc(O)cc23)C(O)C(O)C1O (stereo not drawn) [Isourolithin A glucuronide]
15,23.8 min,Cc1c(O)cc2c(c1O)C(=O)c1ccccc1C2=O [Rubiadin]
16,8.08 min,COc1cc(CC(COC2OC(CO)C(O)C(O)C2O)C(COC2OC(CO)C(O)C(O)C2O)Cc2ccc(O)c(OC)c2)ccc1O (stereo not drawn) [Secoisolariciresinol diglucoside]
17,9.67 min,O=c1oc2cc(OS(=O)(=O)O)ccc2c2ccc(O)cc12 [Urolithin A-3-sulfate]
18,12.7 min,O=c1oc2cc(OS(=O)(=O)O)ccc2c2ccccc12 [Urolithin B-3-sulfate]
19,9.62 min,O=c1oc2cc(O)ccc2c2c(O)c(O)c(O)cc12 [Urolithin M6]
20,11.2 min,O=c1oc2cc(O)ccc2c2c(O)cc(O)cc12 [Urolithin M7]
21,18.6 min,O=C1c2ccccc2C(=O)c2c1cc(O)c(CO)c2O [lucidin]

row,SMILES,LC retention time
1,Oc1ccc(CCc2cc(O)cc(O)c2)cc1 [Dihydroresveratrol],12.8 min
2,O=S(=O)(O)Oc1ccc(C=Cc2cc(O)cc(O)c2)cc1 [Resveratrol 4'-sulfate],10 min

# Source: the RepoRT retention time repository (doi:10.1016/j.foodchem.2021.129757)
